Results reported in patent US9598440B2, “Inhibitors of IRAK4 activity” (MERCK SHARP & DOHME CORP., priority 2012, dated 2017).

Biological target: IRAK4 (Homo sapiens (Human), UniProt Q9NWZ3)
Test: Determination of IRAK4 kinase activity (IMAP fluorescence polarization, phosphorylation of fluorescent peptide substrate)
Type: biochemical
Settings: 0.5 nM GST tagged IRAK4, 100 nM peptide substrate RP7030, 100 μM ATP, 30 minutes at 25° C.
Summary of the method: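 GST-tagged IRAK4 (0.5 nM) phosphorylated 100 nM fluorescent peptide substrate with 100 µM ATP in Tris-HCl pH 7.2, 1 mM MgCl2, 1 mM DTT, 0.01% Tween 20 for 30 min at 25 °C. Phosphorylation read by IMAP nanoparticle binding as fluorescence polarization increase.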

Chain of IRAK4 (Q9NWZ3 whole entry): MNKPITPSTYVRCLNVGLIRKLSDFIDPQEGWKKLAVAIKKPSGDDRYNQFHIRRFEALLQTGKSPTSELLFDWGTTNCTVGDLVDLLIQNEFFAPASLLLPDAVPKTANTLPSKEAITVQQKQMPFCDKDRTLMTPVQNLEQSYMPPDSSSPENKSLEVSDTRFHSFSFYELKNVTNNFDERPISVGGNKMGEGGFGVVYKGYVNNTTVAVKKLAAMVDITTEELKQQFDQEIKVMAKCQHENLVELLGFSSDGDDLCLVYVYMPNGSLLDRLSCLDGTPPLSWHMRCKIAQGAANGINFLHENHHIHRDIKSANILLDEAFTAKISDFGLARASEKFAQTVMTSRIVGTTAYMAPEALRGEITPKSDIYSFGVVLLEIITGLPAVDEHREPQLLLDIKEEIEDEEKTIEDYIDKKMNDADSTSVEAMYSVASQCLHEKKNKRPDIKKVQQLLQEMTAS

Row | SMILES | IC50 [nM]
1 | Cc1nc(Nc2cccc(O)c2)nc(N[C@@H]2C[C@H](CO)[C@@H](O)[C@H]2O)c1-c1nc2ccccc2s1 [Example 104, (1R,2S,3R,5R)-3-((5-(benzo[d]thiazol-2-yl)-2-((3-hydroxyphenyl)amino)-6-methylpyrimidin-4-yl)amino)-5-(hydroxymethyl)cyclopentane-1,2-diol] | 219
2 | COc1cc(Nc2nc(C)c(-c3nc4ccccc4s3)c(N[C@@H]3C[C@H](CO)[C@@H](O)[C@H]3O)n2)ccn1 [Example 105, (1R,2S,3R,5R)-3-((5-(benzo[d]thiazol-2-yl)-2-((2-methoxypyridin-4-yl)amino)-6-methylpyrimidin-4-yl)amino)-5-(hydroxymethyl)cyclopentane-1,2-diol] | 93
3 | Cc1nc(Nc2cccc(Cl)c2)nc(N[C@@H]2C[C@H](CO)[C@@H](O)[C@H]2O)c1-c1nc2ccccc2s1 [Example 106, (1R,2S,3R,5R)-3-((5-(benzo[d]thiazol-2-yl)-2-((3-chlorophenyl)amino)-6-methylpyrimidin-4-yl)amino)-5-(hydroxymethyl)cyclopentane-1,2-diol] | 519
4 | Cc1cc(Nc2nc(C)c(-c3nc4ccccc4s3)c(N[C@@H]3C[C@H](C(C)(C)O)[C@@H](O)[C@H]3O)n2)cc(C)n1 [Example 107, 5-(benzo[d]thiazol-2-yl)-6-(((1R,2S,3R,4S)-2,3-dihydroxy-4-(2-hydroxypropan-2-yl)cyclopentyl)amino)-2-((2,6-dimethylpyridin-4-yl)amino)-4-methylpyrimidine] | 8
5 | Cc1cc(Nc2ncc(-c3nc4ccccc4s3)c(N[C@H]3C[C@@H](CO)[C@H](O)[C@@H]3O)n2)cc(C)n1 [Example 108, 5-(benzo[d]thiazol-2-yl)-6-(((1S,2R,3 S,4S)-2,3-dihydroxy-4-(hydroxymethyl)cyclopentyl)amino)-2-((2,6-dimethylpyridin-4-yl)amino)pyrimidine] | 384
6 | Cc1cc(Nc2ncc(-c3ccc4ccccc4n3)c(N[C@@H]3C[C@H](C(C)(C)O)[C@@H](O)[C@H]3O)n2)ccn1 [Example 124, 6-(((1R,2S,3R,4R)-2,3-dihydroxy-4-(2-hydroxypropan-2-yl)cyclopeltyl)amino)-2-((2-methylpyridin-4-yl)amino)-5-(quinolin-2-yl)pyrimidine] | 0.2
7 | Cc1cc(Nc2ncc(-c3nc4ccccc4s3)c(N[C@@H]3C[C@H](C(C)(C)O)[C@@H](O)[C@H]3O)n2)ccn1 [Example 127, (1R,2S,3R,5S)-3-((5-(benzo[d]thiazol-2-yl)-2-((2-methylpyridine-4-yl)amino)pyrimidin-4-yl)amino)-5-(2-hydroxypropan-2-yl)cyclopentane-1,2-diol] | 16
8 | CC(C)(O)[C@H]1C[C@@H](Nc2nc(NC3CCC3)ncc2-c2nc3ccccc3s2)[C@H](O)[C@@H]1O [Example 128, (1R,2S,3R,5S)-3-((5-(benzo[d]thiazol-2-yl)-2-(cyclobutylamino)pyrimidin-4-yl)amino)-5-(2-hydroxypropan-2-yl)cyclopentane-1,2-diol] | 50
9 | CC(C)(O)[C@H]1C[C@@H](Nc2nc(Nc3cccc(C(N)=O)c3)ncc2-c2nc3ccccc3s2)[C@H](O)[C@@H]1O [Example 129, 3-((5-(benzo[d]thiazol-2-yl)-4-(((1R,2S,3R,4S)-2,3-dihydroxy-4-(2-hydroxypropan-2-yl)cyclopentyl)amino)pyrimidin-2-yl)amino)benzamide] | 1.4
10 | CC(C)(O)[C@H]1C[C@@H](Nc2nc(N)ncc2-c2nc3ccccc3s2)[C@H](O)[C@@H]1O [Example 130, (1R,2S,3R,5S)-3-((2-amino-5-(benzo[d]thiazol-2-yl)pyrimidin-4-yl)amino)-5-(2-hydroxypropan-2-yl)cyclopentane-1,2-diol] | 23
11 | CC(C)(O)[C@H]1C[C@@H](Nc2nc(NC3CCN(S(C)(=O)=O)CC3)ncc2-c2nc3ccccc3s2)[C@H](O)[C@@H]1O [Example 131, (1R,2S,3R,5S)-3-((5-(benzo[d]thiazol-2-yl)-2-((1-(methylsulfonyl)piperidin-4-yl)amino)pyrimidin-4-yl)amino)-5-(2-hydroxypropan-2-yl)cyclopentane-1,2-diol] | 382
